{"source": "patent EP0804408B1", "about": "“NOVEL 4-SUBSTITUTED 2,6-DI-TERT-BUTYLPHENOL COMPOUNDS, PHARMACEUTICAL COMPOSITIONS CONTAINING SAME AND PREPARATION METHOD THEREFOR” (priority 1994, dated 1996)", "tested_on": "VIH-1/LAI", "assay": "Inactivation of HIV-1: infectious titre before/after treatment, titrated on MT4 cells (p24 antigen ELISA, day +10)", "type": "cell-based", "text": "Afin d'évaluer l'efficacité d'AVF1, il a été procédé à la comparaison des titres infectieux de suspensions virales avant et après traitement par trois concentrations de AVF1 pendant trois temps de contact. A partir des résultats expérimentaux, il a été défini pour chaque concentration et chaque temps de contact testés, un facteur de […] du titre infectieux du VIH-1. Ce facteur de réduction exprimé en log 10 correspond au rapport du titre infectieux du virus non traité et du titre infectieux du virus traité par AVF1.\nL'étude a été réalisée en deux étapes : • Traitement du VIH-1/LAI par trois concentrations d'AVF1 pendant 5, 30 et 60 minutes. • Evaluation des titres infectieux des échantillons obtenus avant et après traitement par AVF1 sur cellules MT4.\nLe virus a été dilué au 1/10ème dans chacune des solutions de AVF1 (solution diluée à 2%, 1%, et 0,5%).\nLe virus a été maintenu dans chacune de ces solutions pendant 5 minutes, 30 minutes et 60 minutes, à température ambiante puis immédiatement dilué en tampon NTE. Après dilution en tampn NTE, les échantillons ont été ultracentrifugés afin d'éliminer AVF1 et éviter ainsi sa toxicité sur les cellules MT4 utilisées pour le titrage du virus. Cette étape d'ultracentrifugation permet aussi de concentrer les particules virales résiduelles. Après centrifugation, chaque culot a été repris dans 1 ml de milieu de culture, filtré sur un filtre de 0,45 µm aliquoté et stocké à -80°C.\nLa même expérience a été réalisée deux fois.\nLa méthode de titrage du VIH-1 sur cellules MT4 est basée sur la détection d'une production virale par les cellules inoculées maintenues 10 jours en culture, mesurée par le dosage de l'antigène p24 VIH-1 dans le surnageant de culture.\nBrièvement, les cellules MT4 sont inoculées avec des dilutions en série de virus non traité (contrôle positif) ou avec les échantillons expérimentaux (virus traités par AVF1).\nLe VIH infecte les cellules, se multiplie, puis est libéré dans le surnageant de culture par bourgeonnement à la surface de la cellule. Afin de détecter la présence du virus, les surnageants de culture sont récupérés tous les 3 ou 4 jours et testés au jour +10 après l'infection quant à la présence de l'antigène p24 VIH-1.\nLa détection de l'antigène p24 VIH-1 est réalisée à l'aide d'une technique ELISA sandwich mettant en oeuvre la trousse ELAVIA AgI commercialisée par Diagnostic Pasteur, qui permet la détection de 50 pg d'antigène p24 par millilitre de surnageant.\nLe principe de cette méthode est brièvement le suivant : l'antigène p24 libéré après la lyse des particules virales présentes dans le surnageant est complexé à des anticorps anti-VIH-1 immobilisés dans les puits des microplaques. L'antigène est alors révélé par anticorps polyclonaux anti-VIH-1 biotinylés, reconnus eux-mêmes par un conjugué streptavidine péroxydase. La présence de ce complexe est révélée par une réaction enzymatique après addition du substrat (H2O2) et du chromogène (OPD). Le produit de cette réaction est coloré et peut donc être détecté par mesure de la densité optique à 492 nm. La quantité de produit formé au cours de la réaction enzymatique est directement proportionnelle à la quantité d'antigène présente dans l'échantillon testé.\nLes échantillons à tester ont été dilués ou non dans du milieu de culture. 1 ml d'échantillon non dilué, et 0,4 ml des dilutions suivantes ont été inoculés sur un culot de 1,2 10^6 cellules MT4. Après l'adsoption virale pendant 1 heure à 37°C, l'innoculum viral a été éliminé et les cellules lavées 3 fois en milieu de culture. Les cellules ont alors été resuspendues dans 4 ml de milieu de culture, distribuées dans 4 puits de plaque 24 puits et incubées à 37°C en présence de 5% de CO2.\nTous les 3 ou 4 jours, les surnageants de culture contenus dans chaque puits ont été prélevés et stockés à -80°C puis testés quant à la présence d'antigène p24 VIH-1.\nLe titre infectieux est exprimé en \"tissue Culture Infectious Dose 50\" par millilitre d'échantillon (TCID 50/ml). […]", "key": {"[1]": {"conditions": "AVF1 0,5%, 5 minutes, 1ère expérience"}, "[2]": {"conditions": "AVF1 0,5%, 5 minutes, 2ème expérience"}, "[3]": {"conditions": "AVF1 0,5%, 30 minutes, 1ère expérience"}, "[4]": {"conditions": "AVF1 0,5%, 30 minutes, 2ème expérience"}, "[5]": {"conditions": "AVF1 0,5%, 60 minutes, 1ère expérience"}, "[6]": {"conditions": "AVF1 0,5%, 60 minutes, 2ème expérience"}, "[7]": {"conditions": "AVF1 1%, 5 minutes, 1ère expérience"}, "[8]": {"conditions": "AVF1 1%, 5 minutes, 2ème expérience"}, "[9]": {"conditions": "AVF1 1%, 30 minutes, 1ère expérience"}, "[10]": {"conditions": "AVF1 1%, 30 minutes, 2ème expérience"}, "[11]": {"conditions": "AVF1 1%, 60 minutes, 1ère expérience"}, "[12]": {"conditions": "AVF1 1%, 60 minutes, 2ème expérience"}, "[13]": {"conditions": "AVF1 2%, 5 minutes, 1ère expérience"}, "[14]": {"conditions": "AVF1 2%, 5 minutes, 2ème expérience"}, "[15]": {"conditions": "AVF1 2%, 30 minutes, 1ère expérience"}, "[16]": {"conditions": "AVF1 2%, 30 minutes, 2ème expérience"}, "[17]": {"conditions": "AVF1 2%, 60 minutes, 1ère expérience"}, "[18]": {"conditions": "AVF1 2%, 60 minutes, 2ème expérience"}}}
{"molecule": "CC(C)(C)c1cc(C(=O)OCCOCCOCCOCCOCCOCCOCCOCCO)cc(C(C)(C)C)c1O", "note": "[AVF1, 3,5-di-t-butyl-4-hydroxybenzoate d'octaoxyéthylèneglycol]", "values": [{"measurement": "Facteur de réduction Log TCID50/ml", "setting": "[1]", "result": "> 6,9 Log TCID50/ml"}, {"measurement": "Titre TCID 50/ml", "setting": "[1]", "result": "< 4", "unit": "TCID 50/ml"}, {"measurement": "Facteur de réduction Log TCID50/ml", "setting": "[2]", "result": "> 6,9 Log TCID50/ml"}, {"measurement": "Titre TCID 50/ml", "setting": "[2]", "result": "< 4", "unit": "TCID 50/ml"}, {"measurement": "Facteur de réduction Log TCID50/ml", "setting": "[3]", "result": "> 6,9 Log TCID50/ml"}, {"measurement": "Titre TCID 50/ml", "setting": "[3]", "result": "< 4", "unit": "TCID 50/ml"}, {"measurement": "Facteur de réduction Log TCID50/ml", "setting": "[4]", "result": "> 6,9 Log TCID50/ml"}, {"measurement": "Titre TCID 50/ml", "setting": "[4]", "result": "< 4", "unit": "TCID 50/ml"}, {"measurement": "Facteur de réduction Log TCID50/ml", "setting": "[5]", "result": "> 6,9 Log TCID50/ml"}, {"measurement": "Titre TCID 50/ml", "setting": "[5]", "result": "< 4", "unit": "TCID 50/ml"}, {"measurement": "Facteur de réduction Log TCID50/ml", "setting": "[6]", "result": "> 6,9 Log TCID50/ml"}, {"measurement": "Titre TCID 50/ml", "setting": "[6]", "result": "< 4", "unit": "TCID 50/ml"}, {"measurement": "Facteur de réduction Log TCID50/ml", "setting": "[7]", "result": "> 6,9 Log TCID50/ml"}, {"measurement": "Titre TCID 50/ml", "setting": "[7]", "result": "< 4", "unit": "TCID 50/ml"}, {"measurement": "Facteur de réduction Log TCID50/ml", "setting": "[8]", "result": "> 6,9 Log TCID50/ml"}, {"measurement": "Titre TCID 50/ml", "setting": "[8]", "result": "< 4", "unit": "TCID 50/ml"}, {"measurement": "Facteur de réduction Log TCID50/ml", "setting": "[9]", "result": "> 6,9 Log TCID50/ml"}, {"measurement": "Titre TCID 50/ml", "setting": "[9]", "result": "< 4", "unit": "TCID 50/ml"}, {"measurement": "Facteur de réduction Log TCID50/ml", "setting": "[10]", "result": "> 6,9 Log TCID50/ml"}, {"measurement": "Titre TCID 50/ml", "setting": "[10]", "result": "< 4", "unit": "TCID 50/ml"}, {"measurement": "Facteur de réduction Log TCID50/ml", "setting": "[11]", "result": "> 6,9 Log TCID50/ml"}, {"measurement": "Titre TCID 50/ml", "setting": "[11]", "result": "< 4", "unit": "TCID 50/ml"}, {"measurement": "Facteur de réduction Log TCID50/ml", "setting": "[12]", "result": "> 6,9 Log TCID50/ml"}, {"measurement": "Titre TCID 50/ml", "setting": "[12]", "result": "< 4", "unit": "TCID 50/ml"}, {"measurement": "Facteur de réduction Log TCID50/ml", "setting": "[13]", "result": "> 6,9 Log TCID50/ml"}, {"measurement": "Titre TCID 50/ml", "setting": "[13]", "result": "< 4", "unit": "TCID 50/ml"}, {"measurement": "Facteur de réduction Log TCID50/ml", "setting": "[14]", "result": "> 6,9 Log TCID50/ml"}, {"measurement": "Titre TCID 50/ml", "setting": "[14]", "result": "< 4", "unit": "TCID 50/ml"}, {"measurement": "Facteur de réduction Log TCID50/ml", "setting": "[15]", "result": "> 6,9 Log TCID50/ml"}, {"measurement": "Titre TCID 50/ml", "setting": "[15]", "result": "< 4", "unit": "TCID 50/ml"}, {"measurement": "Facteur de réduction Log TCID50/ml", "setting": "[16]", "result": "> 6,9 Log TCID50/ml"}, {"measurement": "Titre TCID 50/ml", "setting": "[16]", "result": "< 4", "unit": "TCID 50/ml"}, {"measurement": "Facteur de réduction Log TCID50/ml", "setting": "[17]", "result": "> 6,9 Log TCID50/ml"}, {"measurement": "Titre TCID 50/ml", "setting": "[17]", "result": "< 4", "unit": "TCID 50/ml"}, {"measurement": "Facteur de réduction Log TCID50/ml", "setting": "[18]", "result": "> 6,9 Log TCID50/ml"}, {"measurement": "Titre TCID 50/ml", "setting": "[18]", "result": "< 4", "unit": "TCID 50/ml"}, {"measurement": "réduction du pouvoir infectieux", "setting": "solution à 0,5% de AVF1, 5 minutes", "result": "≥ 6,9 log TCID50/ml"}, {"measurement": "particules infectieuses VIH-1 détectées", "setting": "whatever the concentration (2%, 1%, 0,5%) and contact time (5, 30, 60 minutes)", "result": "Aucune particule infectieuse VIH-1 n'a été détectée"}]}
